Data taken from patent US20180044686A1, “TOOLS AND METHODS FOR USING CELL DIVISION LOCI TO CONTROL PROLIFERATION OF CELLS” (Sinai Health System, priority 2015, published 2018).

Key:
[1] = tested on: ALINK-modified MMTV-PyMT-transformed mammary epithelial tumorigenic cell grafts; assay: Mammary gland tumor assay; type: in vivo, mouse; settings: B6N hosts; GCV 50 mg/kg every other day i.p.
Text: Chimeras of Cdk1^+/+, +/loxp-alink mouse C2 ES and CD-1 backgrounds were generated through diploid aggregation, and then were bred with B6N WT mice to generate Cdk1^+/+, +/loxp-alink mice through germline transmission. Cdk1^+/+, +/loxp-alink mice were bred with Ella-Cre mice to generate Cdk1^+/+, +/alink mice. Cdk1^+/+, +/alink mice were then bred with MMTV-PyMT mice (Guy et al., 1992) to get double-positive pups with mammary gland tumors and ALINK modification. Mammary gland tumors with fail-safe modification were isolated, cut into 1 mm^3 pieces, and transplanted into the 4th mammary gland of wild-type B6N females. GCV/PBS treatment was injected every other day at the dosage of 50 mg/kg into the peritoneal cavity with different treatment durations. Mammary gland tumor size was measured by calipers and calculated with the formula V=Length*Width*Height*π/6.

[2] = tested on: mixed culture of non-dividing neurons and dividing NEPs derived from Cdk1+/+,+/alink human CA1 ES cells; assay: Neuronal progenitor vs. neuron killing assay; type: cell-based; settings: GCV 10 uM every other day for 20 days
Method: Cdk1^+/+, +/alink human CA1 ES cells were differentiated to neural epithelial progenitor cells (NEPs). NEPs were subsequently cultured under conditions for differentiation into neurons, thereby generating a mixed culture of non-dividing neurons and dividing NEPs, which were characterized by immunostaining of DAPI, Ki67 and Sox2. GCV (10 uM) was provided to the mixed culture every other day for 20 days. Then, GCV was withdrawn from culture for 4 days before cells were fixed by 4% PFA. Fixed cells were immunostained for proliferation marker Ki67 to check whether all the leftover cells have exited cell cycle, and mature neutron marker beta-TublinIII.

[3] = tested on: subcutaneous teratomas comprising ALINK-modified H1 ES cells; assay: Teratoma assay, ALINK-modified human ES cells; type: in vivo, mouse (human ES cell graft); settings: NOD scid gamma mouse hosts; two rounds of GCV (15 days + 40 days)
Method: (§1) Matrigel Matrix High Concentration (Corning) was diluted 1:3 with cold DMEM media on ice. 5-10×10^6 cells were suspended into 100 ul of 66% DMEM+33% Matrigel media and injected subcutaneously into either or both dorsal flanks of B6N mice (for mouse C2 ES cells) and NOD-SCID mice (for human ES cells). Teratomas formed 2-4 weeks after injection. Teratoma size was measured by caliper, and teratoma volume was calculated using the formula V=(L×W×H)π/6. GCV/PBS treatment was performed by daily injection with 50 mg/kg into the peritoneal cavity with different treatment durations. At the end of treatment, mice were sacrificed and tumors were dissected and fixed in 4% paraformaldehyde for histology analysis.

[4] = tested on: subcutaneous teratomas comprising ALINK-modified mouse C2 cells; assay: Teratoma assay, ALINK-modified mouse C2 ES cells; type: in vivo
Method: as §1

Top2a-EARC ES cells = assay: Targeted cell growth of Top2a-EARC ES cells; type: cell-based, mouse; settings: withdrawal of doxycycline
Method: (§2) Top2a homozygously-targeted cells were trypsinized and plated on gelatinized 24 well plates at a density of 5×10^4 cells per well. Starting one day after plating, cells were exposed to different Dox concentrations (1 μg/ml, 0.5 μg/ml, 0.05 μg/ml and 0 μg/ml), the plate was analyzed in a IncucyteZoom system (Essen Bioscience) by taking pictures every two hours for 3-4 days and measuring confluency.

[5] = tested on: homozygous Cdk1 dox-bridge knock-in mouse ES cells; assay: Targeted cell growth of Cdk1 dox-bridge (EARC) ES cells; type: cell-based; settings: withdrawal of doxycycline
Method: F3-bridge targeted cells were trypsinized and plated on gelatinized 24 well plates at a density of 5×10^4 cells per well. Starting one day after plating, cell counting was performed by trypsinizing 3 wells for each condition and counting live cells using a Countess automated cell counter (Life Technologies). Doxycycline was removed or reduced to 0.05 ng/ml 2 days after plating and live cells were counted every day up to 18 days in the different conditions.

Birc5-EARC ES cells = assay: Targeted cell growth of Birc5-EARC ES cells; type: cell-based, mouse; settings: withdrawal of doxycycline
Method: as §2, with “Birc5” for “Top2a”, “confluence.” for “confluency.”

Eef2-EARC ES cells = assay: Targeted cell growth of Eef2-EARC ES cells; type: cell-based, mouse; settings: withdrawal of doxycycline
Method: as §2, with “Eef2” for “Top2a”, “confluence.” for “confluency.”

Cenpa-EARC ES cells = assay: Targeted cell growth of Cenpa-EARC ES cells; type: cell-based, mouse; settings: withdrawal of doxycycline
Method: as §2, with “Cenpa” for “Top2a”

[6] = cited from earlier work

Nc1nc(O)c2ncn(COC(CO)CO)c2n1 [GCV, ganciclovir]
mammary gland tumor dormancy [1]: able to render the mammary gland tumors to dormancy
killing of dividing NEPs [2]: killed the dividing NEPs
killing of non-dividing neurons [2]: did not kill the non-dividing neurons
teratoma dormancy [3]: rendered the teratomas to dormancy
effect on quiescent cells of the teratoma ([4]; GCV 50 mg/kg daily i.p.): did not affect quiescent cells of the teratoma
teratoma growth ([4]; GCV 50 mg/kg daily i.p.): stops teratoma growth
teratoma dormancy ([4]; brief (3 week) GCV treatment period): sufficient to render the teratomas dormant

C[C@H]1c2cccc(O)c2C(=O)C2=C(O)[C@]3(O)C(=O)C(C(N)=O)=C(O)[C@@H](N(C)C)[C@@H]3[C@@H](O)[C@@H]21 [doxycycline]
time to complete elimination of mitotically active ES cells (Top2a-EARC ES cells): ≤ 4 days
time to complete elimination of mitotically active ES cells [5]: ≤ 5 days
time to complete elimination of mitotically active ES cells (Birc5-EARC ES cells): ≤ 4 days
time to complete elimination of mitotically active ES cells (Eef2-EARC ES cells): ≤ 4 days
time to complete elimination of mitotically active ES cells (Cenpa-EARC ES cells): ≤ 4 days

Bms1
CS score (CRISPR score average provided in Wang et al., 2015) ([6]; gene locus (predicted CDL), CRISPR score average): −1.36

Ppan
CS score ([6]; CRISPR score average provided in Wang et al., 2015, score of the gene locus (predicted CDL)): −1.62
